The Kinase Knowledgebase extract (Sharma et al. 2016)

Biological target: PIK3CG (human) (UniProt P48736)
Test: Inhibition of PIK3CG Kinase Activity

Chain of PIK3CG (human) (P48736 whole entry, looked up): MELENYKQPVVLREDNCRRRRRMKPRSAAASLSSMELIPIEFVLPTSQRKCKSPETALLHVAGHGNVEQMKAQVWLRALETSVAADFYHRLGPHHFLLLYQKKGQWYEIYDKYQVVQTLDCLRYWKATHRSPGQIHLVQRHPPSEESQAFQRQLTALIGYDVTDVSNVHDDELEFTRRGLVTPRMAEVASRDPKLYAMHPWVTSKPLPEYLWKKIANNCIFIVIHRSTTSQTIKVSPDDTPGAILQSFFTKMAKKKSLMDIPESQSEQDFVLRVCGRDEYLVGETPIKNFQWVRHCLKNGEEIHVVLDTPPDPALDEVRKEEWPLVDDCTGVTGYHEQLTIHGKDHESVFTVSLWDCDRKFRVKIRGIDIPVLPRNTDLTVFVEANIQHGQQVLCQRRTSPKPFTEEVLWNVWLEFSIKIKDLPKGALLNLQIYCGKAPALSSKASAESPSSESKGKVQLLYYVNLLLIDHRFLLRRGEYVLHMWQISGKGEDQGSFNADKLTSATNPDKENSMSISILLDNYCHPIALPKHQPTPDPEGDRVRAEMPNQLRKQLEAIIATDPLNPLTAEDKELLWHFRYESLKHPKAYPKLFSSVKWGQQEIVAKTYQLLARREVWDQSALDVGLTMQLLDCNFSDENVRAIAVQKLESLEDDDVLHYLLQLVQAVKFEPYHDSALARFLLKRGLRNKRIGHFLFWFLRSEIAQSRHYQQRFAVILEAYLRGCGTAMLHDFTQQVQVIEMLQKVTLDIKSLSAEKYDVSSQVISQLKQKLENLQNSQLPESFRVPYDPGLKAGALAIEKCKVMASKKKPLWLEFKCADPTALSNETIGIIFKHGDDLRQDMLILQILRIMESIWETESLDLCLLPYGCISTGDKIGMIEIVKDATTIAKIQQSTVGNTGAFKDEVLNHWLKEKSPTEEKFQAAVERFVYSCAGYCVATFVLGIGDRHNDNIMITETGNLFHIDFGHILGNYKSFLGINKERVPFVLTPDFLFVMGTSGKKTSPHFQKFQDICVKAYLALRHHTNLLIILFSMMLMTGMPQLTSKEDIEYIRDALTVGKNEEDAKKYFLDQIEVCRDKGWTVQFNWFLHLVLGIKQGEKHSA

| SMILES | Ki |
| --- | --- |
| COc1ncc(-c2cc(C)c3c(n2)C(C)(C)N(c2cnn(CC(F)(F)F)c2)C3=O)cc1C(=O)NCCN(C)C | < 0.1 µM |
| CC(=O)Nc1cncc(-c2cc(C)c3c(n2)C(C)(C)N(c2cnn(CC(F)(F)F)c2)C3=O)c1 | < 0.1 µM |
| Cc1cc(-c2cncc(OCC(F)(F)F)c2)nc2c1C(=O)N(c1cnn(CC(F)(F)F)c1)[C@@H]2C | < 0.1 µM |
| COCCOCCOc1ncc(-c2cc(C)c3c(c2)CN(c2cnn(CC#N)c2)C3=O)cc1OC | < 0.1 µM |
| Cc1cc(-c2cncc(C(=O)NCC(C)C)c2)nc2c1C(=O)N(c1cnn(CC(F)(F)F)c1)C2(C)C | < 0.1 µM |
| COc1cc(-c2ccc3c(c2)CN(c2cnn(CCC#N)c2)C3=O)cnc1OC | < 0.1 µM |
| COc1cc(-c2cc(C)c3c(c2)CN(c2cnn(CC(F)(F)F)c2)C3=O)cnc1OC | < 0.1 µM |
| COc1cc(-c2cc(N(C)C)c3c(n2)CN(c2cnn(CC#N)c2)C3=O)cnc1OC | < 0.1 µM |
| Cc1cc(-c2cncc(OC(F)F)c2)nc2c1C(=O)N(c1cnn(CC(F)(F)F)c1)C2(C)C | < 0.1 µM |
| CCc1cc(N2Cc3nc(-c4cncc(OC(F)F)c4)ccc3C2=O)nn1C[C@H](C)O | 0.1 to 0.49 µM |
| COc1cc(-c2cc(C)c3c(n2)CN(c2cn(C)cn2)C3=O)cnc1OC | < 0.1 µM |
| COc1ncc(-c2cc(C)c3c(n2)CN(c2cn[nH]c2)C3=O)cc1OCC1CC1 | < 0.1 µM |
| COc1cc(-c2cc(C)c3c(n2)CN(c2ccc(OCCCC(F)(F)F)nc2)C3=O)cnc1OC | < 0.1 µM |
| COc1cc(-c2cc(C)c3c(n2)CN(c2cnc(OC)c(F)c2)C3=O)cnc1OC | < 0.1 µM |
| COc1ccc(-c2cc(C)c3c(n2)CN(c2cnn(CC(F)(F)F)c2)C3=O)cn1 | < 0.1 µM |
| Cc1cc(-c2cncc(OCC(F)(F)F)c2)cc2c1C(=O)N(c1cnn(CC(F)(F)F)c1)C2 | < 0.1 µM |
| C#CCn1cc(N2Cc3cc(-c4cnc(OC)c(OC)c4)ccc3C2=O)cn1 | < 0.1 µM |
| COc1cc(-c2ccc3c(n2)CN(c2cnn(Cc4cc(C)no4)c2)C3=O)cnc1OC | < 0.1 µM |
| COc1ccc(-c2ccc3c(n2)CN(c2cnn(CC#N)c2)C3=O)c(OC)n1 | < 0.1 µM |
| CCOc1cncc(-c2cc(C)c3c(n2)CN(c2cnn(CC(F)(F)F)c2)C3=O)c1 | < 0.1 µM |
| COc1cncc(-c2cc(C)c3c(n2)C2(CCOC2)N(c2cnn(CC(F)(F)F)c2)C3=O)c1 (stereo unspecified) | < 0.1 µM |
| Cc1cc(-c2cncc(OCC(F)F)c2)nc2c1C(=O)N(c1cnn(CC(F)(F)F)c1)C2O (stereo unspecified) | < 0.1 µM |
| COc1cc(-c2cc(C)c3c(n2)[C@H](C)N(c2cnn(C[C@@H](C)O)c2)C3=O)cnc1OC | < 0.1 µM |
| COc1cc(-c2cc(C)c3c(n2)CN(c2ccc(CO)nc2)C3=O)cnc1OC | < 0.1 µM |

| SMILES | Ki |
| --- | --- |
| CCOc1ncc(-c2cc(C)c3c(n2)[C@@]2(CCCO2)N(c2cnn(CC(F)(F)F)c2)C3=O)cc1OC | < 0.1 µM |
| COc1cc(-c2ccc3c(c2)CN(c2cccc(C(C)C#N)c2)C3=O)cnc1OC (stereo unspecified) | 0.1 to 0.49 µM |
| CCOc1cncc(-c2cc(C)c3c(n2)[C@@](C)(OC)N(c2cnn(CC(F)(F)F)c2)C3=O)c1 | < 0.1 µM |
| COc1cc(-c2ccc3c(c2)CN(c2cn[nH]c2)C3=O)cnc1OC | < 0.1 µM |
| Cc1cc(-c2ccc(F)c(O)c2)nc2c1C(=O)N(c1cnn(CC(F)(F)F)c1)C2 | < 0.1 µM |
| Cc1cc(-c2cncc(C(=O)NC3CC3)c2)nc2c1C(=O)N(c1cnn(CC(F)(F)F)c1)C2(C)C | 0.1 to 0.49 µM |
| COc1ncc(-c2cc(C)c3c(n2)CN(c2cnn(CC(F)(F)F)c2)C3=O)cc1Cl | < 0.1 µM |
| COc1cc(-c2ccc3c(c2)CN(c2cn(C)nn2)C3=O)cnc1OC | < 0.1 µM |
| COc1cc(-c2ccc3c(n2)CN(c2cnn(CC4CCCN4)c2)C3=O)cnc1OC (stereo unspecified) | 0.1 to 0.49 µM |
| COc1cc(-c2ccc3c(n2)CN(c2ccon2)C3=O)cnc1O | 0.1 to 0.49 µM |
| CCc1cc(N2Cc3nc(-c4cnc(OC)c(OC)c4)ccc3C2=O)n[nH]1 | 0.1 to 0.49 µM |
| COc1cc(-c2ccc3c(n2)CN(c2ccc(N(C)CC4CCCO4)nc2)C3=O)cnc1OC (stereo unspecified) | 0.1 to 0.49 µM |
| CSc1cncc(-c2cc(C)c3c(n2)CN(c2cnn(CC(F)(F)F)c2)C3=O)c1 | < 0.1 µM |
| C=CC1(O)c2nc(-c3cncc(OC)c3)cc(C)c2C(=O)N1c1cnn(CC(F)(F)F)c1 (stereo unspecified) | 0.1 to 0.49 µM |
| COc1cc(-c2cc(C)c3c(n2)CN(c2cnn(CC(F)(F)F)c2)C3=O)ccc1F | < 0.1 µM |
| COc1ncc(-c2cc(C)c3c(n2)CN(c2cnn(C(C)(C)C#N)c2)C3=O)cc1OC(C)C | < 0.1 µM |
| Cc1cc(-c2cncc(OC(F)F)c2)nc2c1C(=O)N(c1cnn(CC(F)(F)F)c1)C2 | < 0.1 µM |
| CCCn1nc(N2Cc3nc(-c4cnc(OC)c(OC)c4)cc(C)c3C2=O)cc1COC | < 0.1 µM |
| COc1ncc(-c2cc(C)c3c(c2)CN(c2cnn(CC(F)(F)F)c2)C3=O)nc1OC | < 0.1 µM |
| Cc1cc(-c2cccc(OC(F)(F)F)c2)nc2c1C(=O)N(c1cnn(CC(F)(F)F)c1)C2 | < 0.1 µM |
| CCc1cc(N2Cc3nc(-c4cnc(OC)c(OC)c4)ccc3C2=O)nn1CC | < 0.1 µM |
| COc1cc(-c2ccc3c(n2)CN(c2cnn([C@H](C)C#N)c2)C3=O)cnc1OC | < 0.1 µM |
| COc1cc(-c2ccc3c(n2)CN(c2cnn(C(C)(C)C#N)c2)C3=O)cnc1OC(F)F | < 0.1 µM |
| COc1ncc(-c2cc(C)c3c(n2)CN(c2cnn(CC#N)c2)C3=O)cn1 | < 0.1 µM |

| SMILES | Ki |
| --- | --- |
| COc1cc(-c2ccc3c(n2)CN(c2cnn(C[C@H](O)CC#N)c2)C3=O)cnc1OC | < 0.1 µM |
| COc1cc(-c2ccc3c(n2)CN(c2cncc(C(C)(C)C#N)c2)C3=O)cnc1OC | < 0.1 µM |
| COc1cc(-c2ccc3c(n2)CN(c2cnn(C)n2)C3=O)cnc1OC | < 0.1 µM |
| Cc1cc(-c2cncc(OC(F)F)c2)nc2c1C(=O)N(c1cnn(C[C@H](C)O)c1)[C@H]2C | < 0.1 µM |
| CCCOc1cc(-c2cc(C)c3c(n2)C(C)(C)N(c2cnn(CC#N)c2)C3=O)cnc1CC | < 0.1 µM |
| COc1cc(-c2cc(C)c3c(n2)CN(c2cscn2)C3=O)cnc1OC | < 0.1 µM |
| COc1cncc(-c2cc(C)c3c(n2)C(C)(C)N(c2ccn(CC(C)(C)O)n2)C3=O)c1 | 0.1 to 0.49 µM |
| COc1cncc(-c2cc(C)c3c(n2)C2(CC2)N(c2cnn(CC(F)(F)F)c2)C3=O)c1 | < 0.1 µM |
| CC(C)(C#N)n1cc(N2Cc3nc(-c4cncc(OC(F)F)c4)ccc3C2=O)cn1 | 0.1 to 0.49 µM |
| Cc1cc(-c2cncc(OCC(F)F)c2)nc2c1C(=O)N(c1cnn(CC(F)F)c1)C2C (stereo unspecified) | < 0.1 µM |
| COc1cc(-c2cc(C)c3c(n2)[C@]2(CCCO2)N(c2cnn(CC(F)(F)F)c2)C3=O)cnc1OC(C)C | < 0.1 µM |
| CCCn1cc(N2Cc3cc(-c4cnc(OC)c(OC)c4)ccc3C2=O)cn1 | 0.1 to 0.49 µM |
| CCC1(O)c2nc(-c3cnc(OC)c(OC)c3)cc(C)c2C(=O)N1c1cnn(CC(F)(F)F)c1 (stereo unspecified) | < 0.1 µM |
| COc1cc(-c2cc3c(c(C)n2)C(=O)N(c2cnn(CC(F)(F)F)c2)C3)cnc1OC | < 0.1 µM |
| CCOc1ccc(N2Cc3nc(-c4cnc(OC)c(OC)c4)ccc3C2=O)cn1 | 0.1 to 0.49 µM |
| C=C(F)Cn1cc(N2C(=O)c3ccc(-c4cnc(OC)c(OC)c4)nc3C2(C)C)cn1 | < 0.1 µM |
| COc1cc(OC)c(-c2cc(C)c3c(c2)CN(c2cnn(CC(F)(F)F)c2)C3=O)cn1 | < 0.1 µM |
| CCOc1ncc(-c2cc(C)c3c(n2)C2(CC2)N(c2cnn(CC(F)(F)F)c2)C3=O)cc1OC | < 0.1 µM |
| C=C(F)Cn1cc(N2C(=O)c3c(C)cc(-c4cncc(OC)c4)nc3C2(C)C)cn1 | < 0.1 µM |
| Cc1cc(-c2cncc(S(C)(=O)=O)c2)nc2c1C(=O)N(c1cnn(CC(F)(F)F)c1)C2C (stereo unspecified) | < 0.1 µM |
| COc1cc(-c2ccc3c(c2)CN(c2cnn(CC(F)F)c2)C3=O)cnc1OC | < 0.1 µM |
| CCc1cc(N2Cc3nc(-c4cnc(OC)c(OC)c4)cc(C)c3C2=O)nn1C | < 0.1 µM |
| COc1cncc(-c2cc(C)c3c(n2)C(C)(C)N(c2cnn(CC(F)F)c2)C3=O)c1 | < 0.1 µM |
| COc1ncc(-c2cc(C)c3c(n2)C(C)N(c2cnn(CC(F)(F)F)c2)C3=O)cc1C(=O)O (stereo unspecified) | < 0.1 µM |

| SMILES | Ki |
| --- | --- |
| COc1cncc(-c2cc(C)c3c(n2)C(C)(O)N(c2cnn(CC(F)(F)F)c2)C3=O)c1 (stereo unspecified) | < 0.1 µM |
| CCn1cc(N2Cc3nc(-c4cccc(OC)c4)cc(C)c3C2=O)cn1 | < 0.1 µM |
| COCCCn1cc(N2Cc3cc(-c4cnc(OC)c(OC)c4)ccc3C2=O)cn1 | 0.1 to 0.49 µM |
| COc1cc(-c2ccc3c(n2)CN(c2cnn(CCn4nccc4C)c2)C3=O)cnc1OC | 0.1 to 0.49 µM |
| Cc1cc(-c2cncc(OC(F)F)c2)nc2c1C(=O)N(c1cnn(CC(F)F)c1)C2 | < 0.1 µM |
| Cc1cc(-c2cncc(OC(C)C)c2)nc2c1C(=O)N(c1cnn(CC(F)(F)F)c1)C2(C)C | < 0.1 µM |
| COc1cc(-c2cc(C)c3c(n2)CN(c2ccc(C)s2)C3=O)cnc1OC | < 0.1 µM |
| CNC(=O)c1cncc(-c2cc(C)c3c(n2)CN(c2cnn(CC(F)(F)F)c2)C3=O)c1 | < 0.1 µM |
| CCOc1ncc(-c2cc(C)c3c(n2)CN(c2cncc(CCC#N)c2)C3=O)cc1OC | < 0.1 µM |
| COc1cncc(-c2cc(C)c3c(n2)C(C)N(c2ccn(CC4CCCO4)n2)C3=O)c1 (stereo unspecified) | < 0.1 µM |
| CCOCCOc1ncc(-c2cc(C)c3c(n2)CN(c2cnn(CC(F)(F)F)c2)C3=O)cc1OC | 0.1 to 0.49 µM |
| COc1cncc(-c2cc(C)c3c(n2)C2(CCOCC2)N(c2cnn(CC(F)(F)F)c2)C3=O)c1 | < 0.1 µM |
| COc1cc(-c2cc(C)c3c(n2)C(O)N(c2nc(C)cs2)C3=O)cnc1OC (stereo unspecified) | < 0.1 µM |
| CCNC(=O)c1cc(-c2cc(C)c3c(n2)C(C)N(c2cnn(CC(F)F)c2)C3=O)cnc1OC (stereo unspecified) | < 0.1 µM |
| COc1cc(-c2ccc3c(n2)C(C)N(c2ccnc(C(C)(C)C#N)c2)C3=O)cnc1OC (stereo unspecified) | 0.1 to 0.49 µM |
| COc1cncc(-c2cc(C)c3c(n2)CN(c2ccn([C@@H]4CCOC4)n2)C3=O)c1 | < 0.1 µM |
| Cc1cc(-c2cncc(C(=O)NCC3CC3)c2)nc2c1C(=O)N(c1cnn(CC(F)(F)F)c1)C2(C)C | < 0.1 µM |
| CCc1cc(N2Cc3nc(-c4cnc(OC)c(OC)c4)cc(C)c3C2=O)nn1CC | < 0.1 µM |
| Cc1cc(-c2cncc(OCC(F)F)c2)nc2c1C(=O)N(c1cnn(CC(F)(F)F)c1)C2 | < 0.1 µM |
| COc1cc(-c2cc(C)c3c(n2)[C@](C)(OC)N(c2cnn(CC(F)(F)F)c2)C3=O)cnc1OC | < 0.1 µM |
| COc1cncc(-c2cc(C)c3c(n2)CN(c2cnn(CC(F)F)c2)C3=O)c1 | < 0.1 µM |
| CCOc1ncc(-c2cc(C)c3c(n2)C2(CCCO2)N(c2ccn(CC)n2)C3=O)cc1OC (stereo unspecified) | 0.1 to 0.49 µM |
| Cc1cc(-c2cncc(CO)c2)cc2c1C(=O)N(c1cnn(CC(F)(F)F)c1)C2C (stereo unspecified) | < 0.1 µM |
| COc1cc(-c2ccc3c(n2)CN(c2cnn(CCN4CCN(C(C)=O)CC4)c2)C3=O)cnc1OC | 0.1 to 0.49 µM |
